Experimental data taken from patent publication US7410975B2, “Small molecule toll-like receptor (TLR) antagonists” (Coley Pharmaceutical Group, Inc., priority 2003, dated 2008).
Counter-ions that a name gives are not always drawn.

These compounds were tested against T1, human TLR9 (hTLR9) (Homo sapiens, UniProt Q9NR96) (assay: Antagonist screen, hTLR9-NFκB-293 cells, 6× NF-κB-luciferase reporter, with EC50 of CpG ODN 2006). Details: FIG. 1, graph.
T1 construct: expressed in transfected cells
T1 sequence (Q9NR96 26-1032): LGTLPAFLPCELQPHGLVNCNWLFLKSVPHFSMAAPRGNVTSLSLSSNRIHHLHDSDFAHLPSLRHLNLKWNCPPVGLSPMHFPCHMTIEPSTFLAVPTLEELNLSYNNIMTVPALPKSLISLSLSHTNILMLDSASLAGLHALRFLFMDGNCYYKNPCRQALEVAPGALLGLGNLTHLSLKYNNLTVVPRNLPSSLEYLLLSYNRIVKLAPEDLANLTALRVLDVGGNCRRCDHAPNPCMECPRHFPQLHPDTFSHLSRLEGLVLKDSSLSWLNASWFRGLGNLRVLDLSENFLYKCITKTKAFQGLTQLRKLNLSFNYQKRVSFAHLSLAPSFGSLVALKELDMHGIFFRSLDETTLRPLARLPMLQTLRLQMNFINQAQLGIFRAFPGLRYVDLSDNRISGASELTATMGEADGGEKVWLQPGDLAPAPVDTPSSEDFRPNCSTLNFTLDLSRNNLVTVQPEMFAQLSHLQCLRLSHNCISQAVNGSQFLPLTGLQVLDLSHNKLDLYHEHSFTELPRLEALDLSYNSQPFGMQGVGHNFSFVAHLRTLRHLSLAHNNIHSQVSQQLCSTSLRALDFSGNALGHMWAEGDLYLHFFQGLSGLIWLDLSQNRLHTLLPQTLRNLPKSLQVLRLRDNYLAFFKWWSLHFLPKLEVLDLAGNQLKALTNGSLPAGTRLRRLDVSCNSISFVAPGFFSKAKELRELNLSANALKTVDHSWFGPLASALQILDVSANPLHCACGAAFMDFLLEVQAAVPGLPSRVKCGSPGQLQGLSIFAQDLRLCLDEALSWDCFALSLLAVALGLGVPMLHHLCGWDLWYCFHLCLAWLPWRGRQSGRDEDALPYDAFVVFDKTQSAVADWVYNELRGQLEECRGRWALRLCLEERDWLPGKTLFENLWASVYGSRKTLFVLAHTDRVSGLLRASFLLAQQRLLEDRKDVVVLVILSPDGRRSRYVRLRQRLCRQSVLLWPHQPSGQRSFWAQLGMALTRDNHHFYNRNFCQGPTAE
Type: cell-based
Procedure, shortened: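 Luciferase fold induction was compared with the ligand-alone baseline, and antagonism was scored by the lowest concentration giving clear down-regulation.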
`COc1ccc2c(c1)[nH]c1c(C)nccc12.Cl` [compound 613, harmine hydrochloride] was tested, and the “inhibition of TLR9 signaling in response to CpG ODN 2006 (FIG. 1)” value was “concentration-dependent inhibition”. For `OCc1cc2c(cn1)[nH]c1ccccc12` [compound 878, 3-hydroxymethyl-beta-carboline], the “inhibition of TLR9 signaling in response to CpG ODN 2006 (FIG. 1)” value was “concentration-dependent inhibition”.

Same assay, conditions: compound at 0.5, 5, 50 μg/ml; EC50 concentration of CpG ODN 2006; 16 h; NF-κB-luciferase
With `COC(=O)C1=CO[C@@H](C)[C@@H]2CN3CCc4c([nH]c5ccccc45)[C@@H]3C[C@H]12` [compound 593, Tetrahydroalstonine] the “hTLR9 (inhibitory effect, antagonist score)” value was 11 (compounds for which there was clear down regulation only at 50 μg/ml). For `COCCCNC(=O)c1ccc2c(c1N)C(=O)c1ccccc1C2=O` [compound 1337], the “hTLR9 (inhibitory effect, antagonist score)” value was 12 (compounds for which there was clear down regulation at 5 μg/ml and 50 μg/ml). For `C[C@]12N[C@H](Cc3ccccc31)c1ccccc12.O=C(O)/C=C\C(=O)O` [compound 109, Dizocilpine maleate], the “hTLR9 (inhibitory effect, antagonist score)” value was 13 (compounds for which there was clear down regulation at 0.5 μg/ml, 5 μg/ml, and 50 μg/ml). In the case of `NC(=O)c1cccc2c1-c1ccccc1C2` [compound 1132], the “hTLR9 (inhibitory effect, antagonist score)” value was “— (compounds for which there was no clear down regulation even at 50 μg/ml)”. With `CN(C)CCCN1c2ccccc2Sc2ccc(C(F)(F)F)cc21.Cl` [compound 53, Triflupromazinehydrochloride] the “hTLR9 (inhibitory effect, antagonist score)” value was 13 (compounds for which there was clear down regulation at 0.5 μg/ml, 5 μg/ml, and 50 μg/ml). With `NC(=O)c1cc(N)c2c(c1N)C(=O)c1ccccc1C2=O` [compound 1158] the “hTLR9 (inhibitory effect, antagonist score)” value was 11 (compounds for which there was clear down regulation only at 50 μg/ml). With `CNCCCN1c2ccccc2CCc2ccccc21.Cl` [compound 343, Desipraminehydrochloride] the “hTLR9 (inhibitory effect, antagonist score)” value was 12 (compounds for which there was clear down regulation at 5 μg/ml and 50 μg/ml). For `CC1CCN(C(=O)c2cccc3c2-c2ccccc2C3=O)CC1` [compound 1243], the “hTLR9 (inhibitory effect, antagonist score)” value was “— (compounds for which there was no clear down regulation even at 50 μg/ml)”. For Metixene hydrochloride [compound 491], the “hTLR9 (inhibitory effect, antagonist score)” value was 12 (compounds for which there was clear down regulation at 5 μg/ml and 50 μg/ml). In the case of `COc1ccc2c(c1)[nH]c1c(C)nccc12.Cl` [compound 613, harmine hydrochloride], the “hTLR9 (inhibitory effect, antagonist score)” value was 13 (compounds for which there was clear down regulation at 0.5 μg/ml, 5 μg/ml, and 50 μg/ml). For `COC(=O)[C@H]1[C@H]2C[C@@H]3c4[nH]c5cc(OC)ccc5c4CCN3C[C@H]2C[C@@H](OC(=O)/C=C/c2cc(OC)c(OC)c(OC)c2)[C@@H]1OC` [compound 568, Rescinnamin], the “hTLR9 (inhibitory effect, antagonist score)” value was 12 (compounds for which there was clear down regulation at 5 μg/ml and 50 μg/ml). In the case of `O=C(c1cccc2c1-c1ccccc1/C2=N\O)N1CCCCC1` [compound 1050], the “hTLR9 (inhibitory effect, antagonist score)” value was 12 (compounds for which there was clear down regulation at 5 μg/ml and 50 μg/ml). For `CC[C@]12CCCN3CCc4c(n(c5ccccc45)C(=O)C1)[C@@H]32` [compound 607, Eburnamonine], the “hTLR9 (inhibitory effect, antagonist score)” value was “— (compounds for which there was no clear down regulation even at 50 μg/ml)”. In the case of `COC(=O)c1ccc(C2CC(=O)Nc3c2ccc2ccccc32)cc1` (centres unmarked) [compound 965], the “hTLR9 (inhibitory effect, antagonist score)” value was “— (compounds for which there was no clear down regulation even at 50 μg/ml)”. For `C=CCc1ccccc1OC1(c2ccccc2)OC(=O)c2ccccc21` (centres unmarked) [compound 957], the “hTLR9 (inhibitory effect, antagonist score)” value was 12 (compounds for which there was clear down regulation at 5 μg/ml and 50 μg/ml). In the case of `Clc1ccc(C(c2ccccc2Cl)C(Cl)Cl)cc1` (centres unmarked) [compound 833, Mitotane], the “hTLR9 (inhibitory effect, antagonist score)” value was 12 (compounds for which there was clear down regulation at 5 μg/ml and 50 μg/ml). `CCOC(=O)c1cc([N+](=O)[O-])cc2c1-c1ccc([N+](=O)[O-])cc1C2=C(C#N)C#N` [compound 1039] was tested, and the “hTLR9 (inhibitory effect, antagonist score)” value was 11 (compounds for which there was clear down regulation only at 50 μg/ml). `CN1CCN(CCCN2c3ccccc3Sc3ccc(S(=O)(=O)N(C)C)cc32)CC1.CS(=O)(=O)O.CS(=O)(=O)O` [compound 149, Thioproperasinedimesylate] was tested, and the “hTLR9 (inhibitory effect, antagonist score)” value was 13 (compounds for which there was clear down regulation at 0.5 μg/ml, 5 μg/ml, and 50 μg/ml). `CCN(CC)CCCN(CC(=O)C1c2ccc(Cl)cc2NC(=O)c2ccccc21)C(=O)c1ccccc1` (centres unmarked) [compound 1013] was tested, and the “hTLR9 (inhibitory effect, antagonist score)” value was 11 (compounds for which there was clear down regulation only at 50 μg/ml). In the case of `O=C(O)c1ccc(C2(c3ccc(C(=O)O)cc3)OC(=O)c3ccccc32)cc1` [compound 970], the “hTLR9 (inhibitory effect, antagonist score)” value was 11 (compounds for which there was clear down regulation only at 50 μg/ml). In the case of `CN1CCC(=C2c3ccccc3Sc3ccccc32)CC1.O=C(O)/C=C\C(=O)O` [compound 294, Pimethixene maleate], the “hTLR9 (inhibitory effect, antagonist score)” value was 11 (compounds for which there was clear down regulation only at 50 μg/ml). `Cc1nccc2c1[nH]c1ccccc12` [compound 620, Harmane hydrochloride] was tested, and the “hTLR9 (inhibitory effect, antagonist score)” value was 12 (compounds for which there was clear down regulation at 5 μg/ml and 50 μg/ml). `CC(=O)c1ccc2c(c1)N(CCCN(C)C)c1ccccc1S2.O=C(O)/C=C\C(=O)O` [compound 576, Acetopromazinemaleate salt] was tested, and the “hTLR9 (inhibitory effect, antagonist score)” value was 12 (compounds for which there was clear down regulation at 5 μg/ml and 50 μg/ml). In the case of `OC(c1ccccc1)(c1ccccc1)C1CCNCC1` [compound 93, Azacyclonol], the “hTLR9 (inhibitory effect, antagonist score)” value was 11 (compounds for which there was clear down regulation only at 50 μg/ml). For `O=C(O)c1cccc2c1-c1ccccc1/C2=N/Nc1ccc([N+](=O)[O-])cc1[N+](=O)[O-]` [compound 944], the “hTLR9 (inhibitory effect, antagonist score)” value was “— (compounds for which there was no clear down regulation even at 50 μg/ml)”. `CN1CCC(OC(c2ccccc2)c2ccccc2)CC1.Cl` [compound 707, Diphenylpyralinehydrochloride] was tested, and the “hTLR9 (inhibitory effect, antagonist score)” value was 12 (compounds for which there was clear down regulation at 5 μg/ml and 50 μg/ml). “Trifluoperazinedihydrochloride [compound 313]” was tested, and the “hTLR9 (inhibitory effect, antagonist score)” value was 11 (compounds for which there was clear down regulation only at 50 μg/ml). In the case of `Clc1ccccc1C(c1ccccc1)(c1ccccc1)n1ccnc1` [compound 267, Clotrimazole], the “hTLR9 (inhibitory effect, antagonist score)” value was “— (compounds for which there was no clear down regulation even at 50 μg/ml)”. `CC(NCCC(c1ccccc1)c1ccccc1)c1ccccc1.Cl` (centres unmarked) [compound 270, Fendiline hydrochloride] was tested, and the “hTLR9 (inhibitory effect, antagonist score)” value was “— (compounds for which there was no clear down regulation even at 50 μg/ml)”. `OCc1cc2c(cn1)[nH]c1ccccc12` [compound 878, 3-hydroxymethyl-beta-carboline] was tested, and the “hTLR9 (inhibitory effect, antagonist score)” value was 12 (compounds for which there was clear down regulation at 5 μg/ml and 50 μg/ml). `O=C(O)c1cccc2c1/C(=N/O)c1ccccc1-2` [compound 918] was tested, and the “hTLR9 (inhibitory effect, antagonist score)” value was “— (compounds for which there was no clear down regulation even at 50 μg/ml)”. With `Cc1cccc(C2(c3cccc(C)c3)OC(=O)c3ccccc32)c1` [compound 1308] the “hTLR9 (inhibitory effect, antagonist score)” value was 11 (compounds for which there was clear down regulation only at 50 μg/ml). In the case of `Cc1cccc(C)c1NC(=O)CN1CCN(CCCC(c2ccc(F)cc2)c2ccc(F)cc2)CC1` [compound 381, Lidoflazine], the “hTLR9 (inhibitory effect, antagonist score)” value was 11 (compounds for which there was clear down regulation only at 50 μg/ml).
